Laboratory results as given in PMC3663535, “Substrate Selectivity of the Acid-activated Glutamate/γ-Aminobutyric acid (GABA) Antiporter GadC from Escherichia coli” (The Journal of Biological Chemistry, 2013).

Target: T1, WT GadC (Escherichia coli, UniProt P63235)
T1 construct: full-length wild type; hexahistidine tag proteolytically removed; recombinant, reconstituted in E. coli polar lipid proteoliposomes
Assay: proteoliposome Gln/GABA exchange with membrane potential
Format: biochemical
Settings: 5 mM internal GABA, efflux followed through influx of 50 μM external [3H]Gln; pH 5.5

T1 sequence (P63235 whole entry): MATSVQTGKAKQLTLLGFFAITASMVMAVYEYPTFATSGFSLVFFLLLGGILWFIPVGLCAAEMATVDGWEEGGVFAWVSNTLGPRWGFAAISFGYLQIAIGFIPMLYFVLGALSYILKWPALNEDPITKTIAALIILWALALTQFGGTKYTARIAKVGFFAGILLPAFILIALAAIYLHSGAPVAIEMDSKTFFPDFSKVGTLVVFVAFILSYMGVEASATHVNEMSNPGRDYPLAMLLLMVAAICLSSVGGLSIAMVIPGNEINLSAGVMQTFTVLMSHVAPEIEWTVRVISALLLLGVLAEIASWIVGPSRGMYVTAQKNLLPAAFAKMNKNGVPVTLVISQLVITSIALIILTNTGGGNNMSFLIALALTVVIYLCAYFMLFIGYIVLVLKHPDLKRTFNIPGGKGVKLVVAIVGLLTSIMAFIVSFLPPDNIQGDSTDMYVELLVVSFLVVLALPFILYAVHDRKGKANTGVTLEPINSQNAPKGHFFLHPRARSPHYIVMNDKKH

NCCCC(=O)O [GABA]
proteoliposome Gln/GABA exchange with membrane potential: confirm our prediction that GABA^+ is the transport substrate for GadC
